Consider 29 compounds from patent US20130280260A1, “OSTEOCLASTOGENESIS INHIBITOR CONTAINING ANTI-VDAC ANTIBODY” (TOKYO WOMEN'S MEDICAL UNIVERSITY, priority 2010, published 2013).

For experiment [1], the system named is monoclonal antibody 20B12 (anti-VDAC1). Put plainly: Epitope analysis by ELISA using synthetic peptides covering VDAC1. It is filed as binding, mouse. To be noted: for OD450-595: 20B12 at 5 μg/mL, average of two wells; for reaction between peptide and antibody (ELISA): text summary of Tables 2, 3. On the procedure:
In order to examine an epitope for the anti-VDCA monoclonal antibody (VDAC1(20B12), SANTA CRUZ Biotechnology, Inc., sc-58649, mouse monoclonal IgG2b, 100 μg/ml), an analysis was conducted by ELISA using synthetic peptides (Table 1). As the synthetic peptides, 28 types of peptides were prepared so as to cover the VDAC1 completely.
The synthetic peptides were fixed to plates by an avidin-biotin method as follows.
The synthetic peptides (325 nmol/peptide) were each dissolved in 250 μL of DMSO, and then diluted 6400-fold with Wash Buffer (PBS containing 0.05% Tween-20). After a streptavidin-coated plate was washed with Wash Buffer (350 μL, 3 times), 100 μL of the peptide thus diluted was added into the plate, which was left standing in cold storage overnight.
ELISA was performed using the plate to which the peptide was fixed in 7.1, and antibodies bound to the peptide were detected. The detection procedure was as follows. Two wells were used for one condition, and the average was taken. • (1) The liquid in wells was taken out. After washing with Wash Buffer (350 μL, three times), 200 μL of Blocking Buffer (SynBlock) was added to the wells, which were shaken at 37° C. for 1 hour. • (2) The liquid in the wells was taken out, and 50 μL of the monoclonal antibody 20B12 (diluted to 5 μg/mL with Blocking Buffer) was added to the wells, which were shaken at 37° C. for 1 hour. • (3) The liquid in the wells was taken out. After washing with Wash Buffer, 50 μL of HRP-labeled Goat anti Mouse IgG (Fc) (the original solution had been diluted 25000-fold with Wash Buffer) was added to the wells, which were shaken at 37° C. for 1 hour. • (4) The liquid in the wells was taken out, and the plate was washed. Then, 60 μL of a staining solution was added to the plate, which was incubated at 37° C. for 30 minutes. After 60 μL of a stop solution was added thereto to stop the color reaction, the absorbance at 450 nm (Reference 595 nm) was measured with a plate reader.
A general note: An ELISA detects its analyte on a solid surface through an enzyme-linked reagent.

Another experiment relates to human osteoclasts. The experiment in a line: Inhibition of osteoclast differentiation and osteoclastogenesis in human osteoclastogenesis culture system (monocytes with M-CSF and RANKL). It is filed as cell-based. The conditions noted are these: 0.2 μg/mL or 2 μg/mL, in comparison with the control. How it is done:
• (1) Preparation of Monoclonal Antibodies against Cell Membrane Proteins of Osteoclasts • (i) Peripheral blood monocytes from five healthy subjects were cultured in flasks in the presence of M-CSF and RANKL for approximately 2 weeks and differentiated into osteoclasts. After trypsin and EDTA were added to the human osteoclasts, the resulting cells were cultured at 37° C. for 15 minutes, and then detached with a cell scraper and harvested. This operation was repeated to collect cell membranes of human mature osteoclasts. Membrane proteins were prepared from the human mature osteoclasts using a RIPA buffer. • (ii) Using the obtained membrane proteins as an antigen, mice were immunized. Spleen cells of the mice thus immunized were fused with myeloma cells, and four types of hybridomas were obtained. Screening was performed by ELISA using a plate on which the osteoclast membrane proteins were immobilized. The wells of the positive result were further examined for a reactivity to human osteoclasts and a nonspecific reactivity to monocytes. After cloning, 5D1/2B9/2H10 and 5D1/3F3/2C8 were obtained as final lines. • (iii) From these final lines, monoclonal antibodies were obtained. • (2) Purification of Proteins Bound to Antibody Column
• (1) Into the human osteoclastogenesis culture system obtained in step 1. […]

In the case of “AGYQMNFETA KSRVTQSNFA (AGYQMNFETAKSRVTQSNFA) [Peptide 16, synthetic peptide covering part of VDAC1]”, the OD450-595 in experiment [1] (first time) turned out to be 0.388; in experiment [1] (second time) it was 0.444.

Consider “LARGLKLTFD SSFSPNTGKK (LARGLKLTFDSSFSPNTGKK) [Peptide 10, synthetic peptide covering part of VDAC1]”, for which the OD450-595 was 0.360 in experiment [1] (first time) and 0.351 in experiment [1] (second time).

On to “SSFSPNTGKK NAKIKTGYKR (SSFSPNTGKKNAKIKTGYKR) [Peptide 11, synthetic peptide covering part of VDAC1]”, for which the OD450-595 in experiment [1] (first time) was 0.319; in experiment [1] (second time), 0.361.

For “EHINLGCDMD FDIAGPSIRG (EHINLGCDMDFDIAGPSIRG) [Peptide 13, synthetic peptide covering part of VDAC1]”, the OD450-595 in experiment [1] (first time) was 0.369; in experiment [1] (second time) it was 0.322.

Consider “VGYKTDEFQL HTNVNDGTEF (VGYKTDEFQLHTNVNDGTEF) [Peptide 18, synthetic peptide covering part of VDAC1]”, for which the OD450-595 was 0.275 in experiment [1] (first time) and 0.305 in experiment [1] (second time).

Turning to `NCCCC(O)(P(=O)(O)O)P(=O)(O)O` [alendronate sodium hydrate], the “osteoclastogenesis (total area of osteoclasts)” value in the experiment with human osteoclasts is “significantly inhibited”.

For “LGTEITVEDQ LARGLKLTFD (LGTEITVEDQLARGLKLTFD) [Peptide 9, synthetic peptide covering part of VDAC1]”, the OD450-595 is 0.286 in experiment [1] (first time) and 0.338 in experiment [1] (second time).

For “KLETAVNLAW TAGNSNTRFG (KLETAVNLAWTAGNSNTRFG) [Peptide 21, synthetic peptide covering part of VDAC1]”, the figures for the OD450-595 in experiment [1] (first time) and in experiment [1] (second time) were 0.235 and 0.270, respectively.

Regarding “FTSSGSANTE TTKVTGSLET (FTSSGSANTETTKVTGSLET) [Peptide 5, synthetic peptide covering part of VDAC1]”, the OD450-595 in experiment [1] (first time) is 0.311; in experiment [1] (second time), 0.351.

For the compound “KSRVTQSNFA VGYKTDEFQL (KSRVTQSNFAVGYKTDEFQL) [Peptide 17, synthetic peptide covering part of VDAC1]”, the OD450-595 amounted to 0.285 in experiment [1] (first time) and 0.308 in experiment [1] (second time).

As for “GKSARDVFTK GYGFGLIKLD (GKSARDVFTKGYGFGLIKLD) [Peptide 2, synthetic peptide covering part of VDAC1]”, the OD450-595 in experiment [1] (first time) stood at 0.363; in experiment [1] (second time), 0.421.

Consider “NAKIKTGYKR EHINLGCDMD (NAKIKTGYKREHINLGCDMD) [Peptide 12, synthetic peptide covering part of VDAC1]”, for which the figures for the OD450-595 in experiment [1] (first time) and in experiment [1] (second time) were 0.345 and 0.375, respectively.

On to “GGSIYQKVNK KLETAVNLAW (GGSIYQKVNKKLETAVNLAW) [Peptide 20, synthetic peptide covering part of VDAC1]”, for which the OD450-595 in experiment [1] (first time) was found to be 0.362; in experiment [1] (second time), 0.398.

As to “TAGNSNTRFG IAAKYQIDPD (TAGNSNTRFGIAAKYQIDPD) [Peptide 22, synthetic peptide covering part of VDAC1]”, the OD450-595 in experiment [1] (first time) is on record as 0.318; in experiment [1] (second time), 0.319.

As for “GGHKLGLGLE FQA (GGHKLGLGLEFQA) [Peptide 28, synthetic peptide covering part of VDAC1]”, the OD450-595 is given as 0.418 in experiment [1] (first time) and 0.455 in experiment [1] (second time).

For the compound “LKTKSENGLE FTSSGSANTE (LKTKSENGLEFTSSGSANTE) [Peptide 4, synthetic peptide covering part of VDAC1]”, the OD450-595 is on record as 0.312 in experiment [1] (first time) and 0.423 in experiment [1] (second time).

Turning to “FTEKWNTDNT LGTEITVEDQ (FTEKWNTDNTLGTEITVEDQ) [Peptide 8, synthetic peptide covering part of VDAC1]”, the OD450-595 is reported as 0.341 in experiment [1] (first time) and 0.411 in experiment [1] (second time).

For “ALLDGKNVNA GGHKLGLGLE (ALLDGKNVNAGGHKLGLGLE) [Peptide 27, synthetic peptide covering part of VDAC1]”, the OD450-595 turned out to be 0.290 in experiment [1] (first time) and 0.371 in experiment [1] (second time).

Turning to “SLIGLGYTQT LKPGIKLTLS (SLIGLGYTQTLKPGIKLTLS) [Peptide 25, synthetic peptide covering part of VDAC1]”, the OD450-595 in experiment [1] (first time) is 0.590; in experiment [1] (second time) it was 0.679. In addition, in experiment [1], the “reaction between peptide and antibody (ELISA)” value was “weak reaction”.

For “GYGFGLIKLD LKTKSENGLE (GYGFGLIKLDLKTKSENGLE) [Peptide 3, synthetic peptide covering part of VDAC1]”, the OD450-595 in experiment [1] (first time) is 0.280; in experiment [1] (second time) it was 0.354.

With “FDIAGPSIRG ALVLGYEGWL (FDIAGPSIRGALVLGYEGWL) [Peptide 14, synthetic peptide covering part of VDAC1]”, the OD450-595 turned out to be 0.316 in experiment [1] (first time) and 0.385 in experiment [1] (second time).

“HTNVNDGTEF GGSIYQKVNK (HTNVNDGTEFGGSIYQKVNK) [Peptide 19, synthetic peptide covering part of VDAC1]”: the OD450-595 in experiment [1] (first time) stood at 0.300; in experiment [1] (second time) it was 0.312.

As for “MAVPPTYADL GKSARDVFTK (MAVPPTYADLGKSARDVFTK) [Peptide 1, synthetic peptide covering part of VDAC1]”, the OD450-595 in experiment [1] (first time) was 0.448; in experiment [1] (second time), 0.443.

In the case of “IAAKYQIDPD ACFSAKVNNS (IAAKYQIDPDACFSAKVNNS) [Peptide 23, synthetic peptide covering part of VDAC1]”, the OD450-595 came out at 0.276 in experiment [1] (first time) and 0.357 in experiment [1] (second time).

On to “ACFSAKVNNS SLIGLGYTQT (ACFSAKVNNSSLIGLGYTQT) [Peptide 24, synthetic peptide covering part of VDAC1]”, for which the OD450-595 in experiment [1] (first time) came out at 1.284; in experiment [1] (second time) it was 1.336. Also, the “reaction between peptide and antibody (ELISA)” value in experiment [1] was “significant”.

Turning to “LKPGIKLTLS ALLDGKNVNA (LKPGIKLTLSALLDGKNVNA) [Peptide 26, synthetic peptide covering part of VDAC1]”, the OD450-595 in experiment [1] (first time) is reported as 0.268; in experiment [1] (second time) it was 0.367.

Take “ALVLGYEGWL AGYQMNFETA (ALVLGYEGWLAGYQMNFETA) [Peptide 15, synthetic peptide covering part of VDAC1]”: the OD450-595 in experiment [1] (first time) was found to be 0.337; in experiment [1] (second time) it was 0.373.

Regarding “KYRWTEYGLT FTEKWNTDNT (KYRWTEYGLTFTEKWNTDNT) [Peptide 7, synthetic peptide covering part of VDAC1]”, the OD450-595 in experiment [1] (first time) was 0.321; in experiment [1] (second time) it was 0.371.

Take “TTKVTGSLET KYRWTEYGLT (TTKVTGSLETKYRWTEYGLT) [Peptide 6, synthetic peptide covering part of VDAC1]”: the OD450-595 in experiment [1] (first time) is 0.358; in experiment [1] (second time), 0.363.
